Data from PubChem BioAssay (NCI).
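Five compound concentrations were applied to cells in 96-well plates for 48 hours; endpoints were derived by simple linear interpolation of the resulting dose-response curve. GI50 marks 50% less growth. TGI: total growth inhibition.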

Columns and labels:
Experiment in all cases: NCI-60 cell line screen, 48 h
786-0 renal = system: 786-0 renal
A498 renal = system: A498 renal
A549 NSCLC = system: A549 NSCLC
ACHN renal = system: ACHN renal
BT-549 breast = system: BT-549 breast
CAKI-1 renal = system: CAKI-1 renal
CCRF-CEM leukemia = system: CCRF-CEM leukemia
COLO 205 colon = system: COLO 205 colon
DU-145 prostate = system: DU-145 prostate
EKVX NSCLC = system: EKVX NSCLC
HCC-2998 colon = system: HCC-2998 colon
HCT-116 colon = system: HCT-116 colon
HCT-15 colon = system: HCT-15 colon
HL-60(TB) leukemia = system: HL-60(TB) leukemia
HOP-62 NSCLC = system: HOP-62 NSCLC
HOP-92 NSCLC = system: HOP-92 NSCLC
HS 578T breast = system: HS 578T breast
HT29 colon = system: HT29 colon
IGROV1 ovarian = system: IGROV1 ovarian
K-562 leukemia = system: K-562 leukemia
KM12 colon = system: KM12 colon
LOX IMVI melanoma = system: LOX IMVI melanoma
M14 melanoma = system: M14 melanoma
MCF7 breast = system: MCF7 breast
MDA-MB-231 breast = system: MDA-MB-231 breast
MDA-MB-435 = system: MDA-MB-435
MOLT-4 leukemia = system: MOLT-4 leukemia
NCI-H226 lung = system: NCI-H226 lung
NCI-H23 lung = system: NCI-H23 lung
NCI-H460 lung = system: NCI-H460 lung
NCI-H522 lung = system: NCI-H522 lung
NCI/ADR-RES ovarian = system: NCI/ADR-RES ovarian
OVCAR-3 ovarian = system: OVCAR-3 ovarian
OVCAR-4 ovarian = system: OVCAR-4 ovarian
OVCAR-5 ovarian = system: OVCAR-5 ovarian
OVCAR-8 ovarian = system: OVCAR-8 ovarian
PC-3 prostate = system: PC-3 prostate
RPMI-8226 leukemia = system: RPMI-8226 leukemia
RXF 393 renal = system: RXF 393 renal
SF-268 CNS = system: SF-268 CNS
SF-295 CNS = system: SF-295 CNS
SF-539 CNS = system: SF-539 CNS
SK-MEL-2 melanoma = system: SK-MEL-2 melanoma
SK-MEL-28 melanoma = system: SK-MEL-28 melanoma
SK-MEL-5 melanoma = system: SK-MEL-5 melanoma
SK-OV-3 ovarian = system: SK-OV-3 ovarian
SN12C renal = system: SN12C renal
SNB-19 CNS = system: SNB-19 CNS
SNB-75 CNS = system: SNB-75 CNS
SR leukemia = system: SR leukemia
SW-620 colon = system: SW-620 colon
T-47D breast = system: T-47D breast
TK-10 renal = system: TK-10 renal
U251 CNS = system: U251 CNS
UACC-257 melanoma = system: UACC-257 melanoma
UACC-62 melanoma = system: UACC-62 melanoma
UO-31 renal = system: UO-31 renal

COc1cc(OC)cc(C2C(C#N)=C(N)Oc3c2ccc2ccc(O)cc32)c1 (stereo not given) was tested, and the GI50 (786-0 renal) was under 0.0125 µM, the TGI (786-0 renal) was 9.23 µM and the GI50 (A498 renal) was under 0.01 µM. For the same compound, the TGI (A498 renal) was 2.64 µM, the GI50 (A549 NSCLC) was under 0.01 µM and the TGI (A549 NSCLC) was 9.97 µM. The GI50 (ACHN renal) was under 0.01 µM, the TGI (ACHN renal) was 6.58 µM and the GI50 (BT-549 breast) was under 0.01 µM. It also gave a TGI (BT-549 breast) of 11.5 µM, a GI50 (CAKI-1 renal) of under 0.01 µM and a TGI (CAKI-1 renal) of 6.08 µM. It also gave a GI50 (CCRF-CEM leukemia) of under 0.01 µM, a TGI (CCRF-CEM leukemia) of 14 µM and a GI50 (COLO 205 colon) of 0.155 µM. For the same compound, the TGI (COLO 205 colon) was 1.03 µM, the GI50 (DU-145 prostate) was under 0.01 µM and the TGI (DU-145 prostate) was 3.84 µM. It also gave a GI50 (EKVX NSCLC) of under 0.01 µM, a TGI (EKVX NSCLC) of 6.66 µM and a GI50 (HCC-2998 colon) of under 0.0166 µM. The TGI (HCC-2998 colon) was 0.53 µM, the GI50 (HCT-116 colon) was under 0.01 µM and the TGI (HCT-116 colon) was 3.88 µM. The GI50 (HCT-15 colon) was under 0.01 µM, the TGI (HCT-15 colon) was 1.93 µM and the GI50 (HL-60(TB) leukemia) was under 0.01 µM. It also gave a TGI (HL-60(TB) leukemia) of under 0.01 µM, a GI50 (HOP-62 NSCLC) of under 0.01 µM and a TGI (HOP-62 NSCLC) of 5.75 µM. The GI50 (HOP-92 NSCLC) was under 0.01 µM, the TGI (HOP-92 NSCLC) was 2.95 µM and the GI50 (HS 578T breast) was under 0.01 µM. For the same compound, the TGI (HS 578T breast) was 9.95 µM, the GI50 (HT29 colon) was 0.088 µM and the TGI (HT29 colon) was 5.83 µM. The GI50 (IGROV1 ovarian) was under 0.01 µM, the TGI (IGROV1 ovarian) was 6.61 µM and the GI50 (K-562 leukemia) was under 0.01 µM. For the same compound, the TGI (K-562 leukemia) was over 31.7 µM, the GI50 (KM12 colon) was under 0.01 µM and the TGI (KM12 colon) was 1.34 µM. For the same compound, the GI50 (LOX IMVI melanoma) was under 0.01 µM, the TGI (LOX IMVI melanoma) was 1.63 µM and the GI50 (M14 melanoma) was under 0.01 µM. For the same compound, the TGI (M14 melanoma) was 5.25 µM, the GI50 (MCF7 breast) was under 0.01 µM and the TGI (MCF7 breast) was 11.3 µM. It also gave a GI50 (MDA-MB-231 breast) of under 0.01 µM, a TGI (MDA-MB-231 breast) of 5.14 µM and a GI50 (MDA-MB-435) of under 0.01 µM. For the same compound, the TGI (MDA-MB-435) was under 0.01 µM, the GI50 (MOLT-4 leukemia) was under 0.01 µM and the TGI (MOLT-4 leukemia) was 12.8 µM. For the same compound, the GI50 (NCI-H226 lung) was under 0.01 µM, the GI50 (NCI-H23 lung) was under 0.01 µM and the TGI (NCI-H23 lung) was 4.74 µM. It also gave a GI50 (NCI-H460 lung) of under 0.01 µM, a TGI (NCI-H460 lung) of 1.13 µM and a GI50 (NCI-H522 lung) of under 0.01 µM. For the same compound, the GI50 (NCI/ADR-RES ovarian) was under 0.01 µM, the GI50 (OVCAR-3 ovarian) was under 0.01 µM and the TGI (OVCAR-3 ovarian) was under 0.01 µM. It also gave a TGI (OVCAR-4 ovarian) of 15.6 µM, a GI50 (OVCAR-5 ovarian) of 0.0521 µM and a TGI (OVCAR-5 ovarian) of 12 µM. For the same compound, the GI50 (OVCAR-8 ovarian) was under 0.01 µM, the TGI (OVCAR-8 ovarian) was 8.29 µM and the GI50 (PC-3 prostate) was under 0.01 µM. For the same compound, the TGI (PC-3 prostate) was 13.9 µM, the GI50 (RPMI-8226 leukemia) was under 0.01 µM and the TGI (RPMI-8226 leukemia) was 3.28 µM. The GI50 (RXF 393 renal) was under 0.01 µM, the TGI (RXF 393 renal) was 4.49 µM and the GI50 (SF-268 CNS) was under 0.01 µM. The TGI (SF-268 CNS) was 6.87 µM, the GI50 (SF-295 CNS) was under 0.01 µM and the TGI (SF-295 CNS) was 2.67 µM. The GI50 (SF-539 CNS) was under 0.01 µM, the TGI (SF-539 CNS) was under 0.01 µM and the GI50 (SK-MEL-2 melanoma) was 0.587 µM. For the same compound, the TGI (SK-MEL-2 melanoma) was 7.37 µM, the GI50 (SK-MEL-28 melanoma) was 2.27 µM and the TGI (SK-MEL-28 melanoma) was 9.97 µM. The GI50 (SK-MEL-5 melanoma) was under 0.01 µM, the TGI (SK-MEL-5 melanoma) was under 0.01 µM and the GI50 (SK-OV-3 ovarian) was under 0.01 µM. For the same compound, the TGI (SK-OV-3 ovarian) was 11.4 µM, the GI50 (SN12C renal) was under 0.01 µM and the TGI (SN12C renal) was 5.89 µM. It also gave a GI50 (SNB-19 CNS) of under 0.01 µM, a TGI (SNB-19 CNS) of 11.6 µM and a GI50 (SNB-75 CNS) of under 0.01 µM. For the same compound, the TGI (SNB-75 CNS) was 6.54 µM, the GI50 (SR leukemia) was under 0.01 µM and the TGI (SR leukemia) was 27.1 µM. For the same compound, the GI50 (SW-620 colon) was under 0.01 µM, the TGI (SW-620 colon) was 14.4 µM and the GI50 (T-47D breast) was 2.29 µM. The TGI (T-47D breast) was 22.8 µM, the GI50 (TK-10 renal) was 3.36 µM and the TGI (TK-10 renal) was 19.6 µM. It also gave a GI50 (U251 CNS) of under 0.01 µM, a TGI (U251 CNS) of 1.89 µM and a GI50 (UACC-257 melanoma) of 2.38 µM. It also gave a TGI (UACC-257 melanoma) of 32.5 µM, a GI50 (UACC-62 melanoma) of 1.41 µM and a TGI (UACC-62 melanoma) of 4.42 µM. It also gave a GI50 (UO-31 renal) of under 0.0112 µM and a TGI (UO-31 renal) of 6.62 µM.
